{
  "source": "patent US20040002514A1",
  "about": "“Topical use of hydroxyeicosatetraenoic acid compounds to treat psoriasis” (Alcon, Inc., priority 2002, published 2004)",
  "origin": "cited, not measured here",
  "key": {"[1]": {"tested_on": "IL-6 synthesis by bone marrow stromal cells"}, "[2]": {"tested_on": "IL-8 production by human bone marrow stromal cells", "conditions": "1 μM to 0.1 nM"}, "[3]": {"tested_on": "leukotriene B4 production or its activity"}, "colitis": {"tested_on": "colitis", "conditions": "in vivo"}},
  "data": [
    {"smiles": "CCCCC[C@H](O)/C=C/C=C\\C/C=C\\C/C=C\\CCCC(=O)O", "note": "[15-HETE, 15-Hydroxyeicosatetraenoic acid]", "values": [
      {"measurement": "effect on spontaneous, serum- and cytokine-induced IL-6 synthesis", "setting": "[1]", "value": "no effect"},
      {"measurement": "effect on spontaneous and serum-induced production of IL-8", "setting": "[2]", "value": "no effect"},
      {"measurement": "improvement of psoriasis", "setting": "psoriatic skin lesions; injected into psoriatic skin lesions", "value": "can improve psoriasis"},
      {"measurement": "amount required to cause a clinical effect", "setting": "psoriatic skin lesions; intralesional injection, 0.1 ml of 10 lmol/L", "value": 300, "unit": "ng"},
      {"measurement": "effect on leukotriene B4 production or its activity", "setting": "[3]", "value": "inhibitory effects"},
      {"measurement": "anti-inflammatory properties in colitis", "setting": "colitis", "value": "minor anti-inflammatory properties"}
    ]}
  ]
}
